The target in one series is T1, human GIVA cPLA2 (Homo sapiens, UniProt P47712).
T1 sequence (P47712 1-749): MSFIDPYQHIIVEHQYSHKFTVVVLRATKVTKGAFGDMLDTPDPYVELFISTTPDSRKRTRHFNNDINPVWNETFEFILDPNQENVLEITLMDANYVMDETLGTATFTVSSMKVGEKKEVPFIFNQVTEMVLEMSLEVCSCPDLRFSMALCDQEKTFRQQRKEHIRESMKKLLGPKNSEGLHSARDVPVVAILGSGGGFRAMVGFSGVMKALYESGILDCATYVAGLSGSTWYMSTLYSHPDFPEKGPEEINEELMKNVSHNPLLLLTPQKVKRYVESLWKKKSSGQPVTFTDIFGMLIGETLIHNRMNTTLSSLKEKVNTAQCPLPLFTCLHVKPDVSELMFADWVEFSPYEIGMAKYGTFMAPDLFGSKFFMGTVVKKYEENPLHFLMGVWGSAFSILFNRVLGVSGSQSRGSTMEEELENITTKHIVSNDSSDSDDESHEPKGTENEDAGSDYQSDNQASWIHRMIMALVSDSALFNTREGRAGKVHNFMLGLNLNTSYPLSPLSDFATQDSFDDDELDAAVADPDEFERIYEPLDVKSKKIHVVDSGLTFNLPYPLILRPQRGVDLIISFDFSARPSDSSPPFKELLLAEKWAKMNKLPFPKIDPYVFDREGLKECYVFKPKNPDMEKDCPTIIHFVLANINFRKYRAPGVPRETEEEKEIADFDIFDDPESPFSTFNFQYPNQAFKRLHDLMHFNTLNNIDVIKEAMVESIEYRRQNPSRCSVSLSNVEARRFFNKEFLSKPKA
Kind of series: GIVA cPLA2 specific mixed micelle assay. The conditions noted are these: mean and standard error; for Average percent inhibition GIVA cPLA2: 0.091 mole fraction, n = 3. It counts as biochemical. The protocol: (§1) Inhibition of phospholipase A2 by perfluoroketone compounds. […] (2002) J. Med. Chem. 45: 2891-2893; Kokotos, G. et al. (2004). J. Med. Chem. 47: 3615-3628). The standard GVIA iPLA2 activity assay utilizes DPPC/Triton™ X-100 mixed micelles at a ratio of 1:4 as previously described (Stephens D. et al. (2006). J. Med. Chem., 49: 2821-2828). GV sPLA2 activity was measured in an assay similar to the assays for GIVA cPLA2 and GVIA iPLA2.

The target of the next series is T2, GVIA iPLA2 (Homo sapiens, UniProt O60733).
T2 sequence (O60733 1-806): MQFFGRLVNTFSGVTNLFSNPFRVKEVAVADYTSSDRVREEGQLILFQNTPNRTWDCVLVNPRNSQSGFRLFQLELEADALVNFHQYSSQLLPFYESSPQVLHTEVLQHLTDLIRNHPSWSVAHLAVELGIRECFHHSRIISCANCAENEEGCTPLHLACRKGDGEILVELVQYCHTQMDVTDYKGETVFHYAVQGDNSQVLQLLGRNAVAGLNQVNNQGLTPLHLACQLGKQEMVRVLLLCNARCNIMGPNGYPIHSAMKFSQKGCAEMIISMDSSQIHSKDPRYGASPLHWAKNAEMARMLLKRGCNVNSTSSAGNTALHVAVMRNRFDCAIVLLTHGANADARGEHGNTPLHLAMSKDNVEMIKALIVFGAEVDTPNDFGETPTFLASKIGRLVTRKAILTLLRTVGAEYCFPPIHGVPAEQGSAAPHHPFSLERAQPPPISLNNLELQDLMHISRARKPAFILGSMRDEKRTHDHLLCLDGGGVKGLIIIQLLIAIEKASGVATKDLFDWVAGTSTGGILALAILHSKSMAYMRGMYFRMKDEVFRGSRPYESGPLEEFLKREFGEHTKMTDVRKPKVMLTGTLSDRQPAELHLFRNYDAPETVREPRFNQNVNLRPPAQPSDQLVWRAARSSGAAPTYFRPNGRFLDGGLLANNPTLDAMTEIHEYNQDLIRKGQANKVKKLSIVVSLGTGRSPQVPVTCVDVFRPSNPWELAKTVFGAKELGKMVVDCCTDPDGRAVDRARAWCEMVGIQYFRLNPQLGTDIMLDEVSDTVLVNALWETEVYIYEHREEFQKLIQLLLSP
The series can be described thus: standard GVIA iPLA2 activity assay (DPPC/Triton X-100 mixed micelles). The conditions noted are these: mean and standard error; for Average percent inhibition GVIA iPLA2: 0.091 mole fraction, n = 3; for inhibition at 0.091 mole fraction: n = 3, read-out: Average percent inhibition GVIA iPLA2. The series is classed as biochemical. The protocol: as §1

The next series concerns the target T3, GV sPLA2 (Homo sapiens, UniProt P39877).
T3 sequence (P39877 21-138): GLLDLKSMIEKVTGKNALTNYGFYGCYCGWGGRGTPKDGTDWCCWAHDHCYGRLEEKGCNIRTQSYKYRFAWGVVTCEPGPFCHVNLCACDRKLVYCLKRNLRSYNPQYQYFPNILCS
Kind of series: GV sPLA2 activity assay (release of [14C]-palmitic acid from mixed micelles). The series is classed as biochemical. The conditions noted are these: mean and standard error; for Average percent inhibition GV sPLA2: 0.091 mole fraction, n = 3. As to the method:
as §1

A further series deals with EAE-induced SJL/J mice. Kind of series: Clinical course of EAE in SJL/J mice treated with fluoroketone compounds. The series is classed as in vivo.

Turning to `CCCCCCOc1ccc(CCC(=O)C(F)(F)F)cc1` [FKGK1, 1,1,1-Trifluoro-4-(4-hexyloxy-phenyl)-2-butanone], on human GIVA cPLA2, the “Average percent inhibition GIVA cPLA2” value worked out at 91 ± 2%. In addition, the “Average percent inhibition GVIA iPLA2” value at GVIA iPLA2 was found to be 85 ± 4%. Besides, on GV sPLA2, the “Average percent inhibition GV sPLA2” value was found to be 82 ± 8%.

`CCCCCCOc1ccc(CCCCC(=O)C(F)(F)F)cc1` [FKGK2, 1,1,1-Trifluoro-6-(4hexyloxy-phenyl)-2-hexanone]: the “Average percent inhibition GIVA cPLA2” value at human GIVA cPLA2 came to 92 ± 3%. The “Average percent inhibition GVIA iPLA2” value on GVIA iPLA2 stood at 91 ± 4%. Further, the “Average percent inhibition GV sPLA2” value at GV sPLA2 was determined as 86 ± 2%. Moreover, the “severity and progression of the disease (EAE)” value in the series on EAE-induced SJL/J mice (delayed treatment from day 11 after immunization, 2 weeks, i.p., vs vehicle) was “did not show any significant improvement”. In addition, the “maximum clinical disability score” value with EAE-induced SJL/J mice (treatment before onset of symptoms, daily for 3 weeks from day 6, course until day 40, 5-point scale) was “around 0.5 grade”.

In the case of `CCCCCCCCCCOc1ccc(CCC(=O)C(F)(F)F)cc1` [FKGK3, 1,1,1-Trifluoro-4-(4-decyloxy-phenyl)-2-butanone], the “Average percent inhibition GIVA cPLA2” value on human GIVA cPLA2 is given as 96 ± 2%. Also, the “Average percent inhibition GVIA iPLA2” value at GVIA iPLA2 was found to be 94 ± 8%. Further, the “Average percent inhibition GV sPLA2” value at GV sPLA2 is 80 ± 6%.

Turning to `CCCCCCCCCCOc1ccc(CCCCC(=O)C(F)(F)F)cc1` [FKGK4, 1,1,1-Trifluoro-6-(4-decyloxy-phenyl)-2-hexanone], the “Average percent inhibition GIVA cPLA2” value at human GIVA cPLA2 was determined as 95 ± 2%. Moreover, on GVIA iPLA2, the inhibition (in general, the relative decrease from the control value, in per cent) at 0.091 mole fraction was 94 ± 8%. On GV sPLA2, the “Average percent inhibition GV sPLA2” value is on record as 84 ± 7%.

As for `O=C(CCc1ccc(OCc2ccccc2)cc1)C(F)(F)F` [FKGK5, 1,1,1-Trifluoro-4-(4-benzyloxy-phenyl)-2-butanone], the melting point – broadly, the temperature, or range, at which the solid turns liquid – fell in the range of 71 to 72 °C. The “Average percent inhibition GIVA cPLA2” value at human GIVA cPLA2 came out at 88 ± 1%. Further, the “Average percent inhibition GVIA iPLA2” value on GVIA iPLA2 stood at 71 ± 14%. Besides, the “Average percent inhibition GV sPLA2” value on GV sPLA2 is given as 49 ± 12%.

`O=C(C(F)(F)F)C(F)(F)CCCc1ccccc1` [FKGK7, 1,1,1,3,3-Pentafluoro-6-phenyl-hexan-2-one]: the inhibition at 0.091 mole fraction on human GIVA cPLA2 (n = 3, read-out: Average percent inhibition GIVA cPLA2) stood at 27 ± 3%; at GVIA iPLA2 it was 49 ± 12%; at GV sPLA2 (n = 3, read-out: Average percent inhibition GV sPLA2) it was 59 ± 12%.

With `CCCCCCCCCCCCCCC(F)C(=O)C(F)(F)F` (stereo not drawn) [FKGK8, 1,1,1,3-Tetrafluoro-2-heptadecanone], the “Average percent inhibition GIVA cPLA2” value on human GIVA cPLA2 was determined as 94 ± 2%. Also, at GVIA iPLA2, the “Average percent inhibition GVIA iPLA2” value was 93 ± 4%. The “Average percent inhibition GV sPLA2” value on GV sPLA2 is recorded as 86 ± 10%.

With `O=C(CCCCCc1ccccc1)C(F)(F)C(F)(F)F` [FKGK12, 1,1,1,2,2-Pentafluoro-8-phenyl-3-octanone], on human GIVA cPLA2, the “Average percent inhibition GIVA cPLA2” value was determined as 56 ± 4%. Besides, at GVIA iPLA2, the “Average percent inhibition GVIA iPLA2” value was found to be 98 ± 5%. Besides, the “Average percent inhibition GV sPLA2” value at GV sPLA2 is reported as 46 ± 8%.

For the molecule `O=C(CCCCCCc1ccccc1)C(F)(F)C(F)(F)F` [FKGK13, 1,1,1,2,2-Pentafluoro-9-phenyl-3-nonanone], at human GIVA cPLA2, the “Average percent inhibition GIVA cPLA2” value is listed as 65 ± 12%. Further, the “Average percent inhibition GVIA iPLA2” value at GVIA iPLA2 amounted to 98 ± 4%. Also, on GV sPLA2, the “Average percent inhibition GV sPLA2” value turned out to be 75 ± 10%.

For `CCCCCCOc1ccc(CCC(=O)C(F)(F)C(F)(F)F)cc1` [FKGK14, 1,1,1,2,2-Pentafluoro-5-(4-hexyloxy-phenyl)-3-pentanone], the “Average percent inhibition GIVA cPLA2” value on human GIVA cPLA2 is 73 ± 4%. For the same molecule, on GVIA iPLA2, the “Average percent inhibition GVIA iPLA2” value came to 95 ± 5%. In addition, the “Average percent inhibition GV sPLA2” value at GV sPLA2 was 86 ± 4%.

The values are drawn from patent US20100048727A1, “PERFLUOROKETONE COMPOUNDS AND USES THEREOF” (priority 2007, published 2010).
